In ChEMBL document CHEMBL3885861, “Open TG-GATES”:

Species: Rattus norvegicus
Experiment: Open TG-GATES - Regimen: Single
Type: toxicity, organism-based, Sprague-Dawley
Parameters: regimen Single, gender Male, age 6 weeks
Conditions: in vivo, iv, 300 mg/kg, route intravenous injection, dose level Low; for APTT / Bas / Eos / Fbg / Hb / Ht / Lym / MCH / MCHC / MCV / Mono / PT / Plat / RBC / Ret / WBC: tissue Blood; for KIDNEY_L / KIDNEY_R / KIDNEY_TOTAL: tissue Kidney; for LIVER: tissue Liver; for ALP / ALT / AST / BUN / CRE / Ca / Cl / DBIL / GLC / IP / K / LDH / Na / PL / RALB / TBIL / TC / TG / TP / gamma-GTP: tissue Plasma

CC(=O)OCC1=C(C(=O)O)N2C(=O)[C@@H](NC(=O)Cc3cccs3)[C@H]2SC1 [CEPHALOTHIN]
TERMINAL_BW (3 h): 215.7 g
APTT (3 h): 21.9 s
Bas (3 h): 0%
Eos (3 h): 0.6%
Fbg (3 h): 294.6 mg/dL
Hb (3 h): 13 g/dL
Ht (3 h): 38.4%
Lym (3 h): 75.4%
MCH (3 h): 21.3 pg
MCHC (3 h): 33.8%
MCV (3 h): 62.9 fL
Mono (3 h): 2.6%
PT (3 h): 16.4 s
Plat (3 h): 128.8 x10_4/uL
RBC (3 h): 611.6 x10_4/ul
Ret (3 h): 6.6%
WBC (3 h): 98.3 x10_2/uL
KIDNEY_L (3 h): 0.9 g
KIDNEY_R (3 h): 1 g
KIDNEY_TOTAL (3 h): 1.9 g
LIVER (3 h): 9.8 g
ALP (3 h): 1407.8 IU/L
ALT (3 h): 49.8 IU/L
AST (3 h): 87.8 IU/L
BUN (3 h): 12.4 mg/dL
CRE (3 h): 0.2 mg/dL
Ca (3 h): 10.5 mg/dL
Cl (3 h): 105.8 meq/L
DBIL (3 h): 0 mg/dL
GLC (3 h): 179 mg/dL
IP (3 h): 7.8 mg/dL
K (3 h): 4.1 meq/L
LDH (3 h): 204.4 IU/L
Na (3 h): 142.4 meq/L
PL (3 h): 135.2 mg/dL
RALB (3 h): 2.8 g/dL
TBIL (3 h): 0.016 mg/dL
TC (3 h): 69.2 mg/dL
TG (3 h): 92 mg/dL
TP (3 h): 5.2 g/dL
gamma-GTP (3 h): 1.4 IU/L
TERMINAL_BW (6 h): 208.2 g
APTT (6 h): 22.7 s
Bas (6 h): 0%
Eos (6 h): 0.8%
Fbg (6 h): 278.6 mg/dL
Hb (6 h): 13.4 g/dL
Ht (6 h): 38.9%
Lym (6 h): 78%
MCH (6 h): 21.3 pg
MCHC (6 h): 34.4%
MCV (6 h): 62 fL
Mono (6 h): 2.6%
PT (6 h): 16 s
Plat (6 h): 118.3 x10_4/uL
RBC (6 h): 627.2 x10_4/ul
Ret (6 h): 5.9%
WBC (6 h): 75.8 x10_2/uL
KIDNEY_L (6 h): 0.9 g
KIDNEY_R (6 h): 0.9 g
KIDNEY_TOTAL (6 h): 1.9 g
LIVER (6 h): 8.9 g
ALP (6 h): 1320.4 IU/L
ALT (6 h): 36.8 IU/L
AST (6 h): 78.4 IU/L
BUN (6 h): 9.6 mg/dL
CRE (6 h): 0.2 mg/dL
Ca (6 h): 10.3 mg/dL
Cl (6 h): 105.6 meq/L
DBIL (6 h): 0 mg/dL
GLC (6 h): 171.6 mg/dL
IP (6 h): 9 mg/dL
K (6 h): 4.1 meq/L
LDH (6 h): 162.4 IU/L
Na (6 h): 141.6 meq/L
PL (6 h): 125.4 mg/dL
RALB (6 h): 2.9 g/dL
TBIL (6 h): 0.022 mg/dL
TC (6 h): 66.4 mg/dL
TG (6 h): 75.2 mg/dL
TP (6 h): 5.3 g/dL
gamma-GTP (6 h): 1 IU/L
TERMINAL_BW (9 h): 211.4 g
APTT (9 h): 24.2 s
Bas (9 h): 0%
Eos (9 h): 1%
Fbg (9 h): 284 mg/dL
Hb (9 h): 13.2 g/dL
Ht (9 h): 38.6%
Lym (9 h): 81.2%
MCH (9 h): 21.3 pg
MCHC (9 h): 34.1%
MCV (9 h): 62.3 fL
Mono (9 h): 2%
PT (9 h): 16.1 s
Plat (9 h): 135 x10_4/uL
RBC (9 h): 619.6 x10_4/ul
Ret (9 h): 6.4%
WBC (9 h): 77.3 x10_2/uL
KIDNEY_L (9 h): 1 g
KIDNEY_R (9 h): 1 g
KIDNEY_TOTAL (9 h): 1.9 g
LIVER (9 h): 8.6 g
ALP (9 h): 1157.8 IU/L
ALT (9 h): 34.2 IU/L
AST (9 h): 69 IU/L
BUN (9 h): 10 mg/dL
CRE (9 h): 0.1 mg/dL
Ca (9 h): 10.4 mg/dL
Cl (9 h): 106.2 meq/L
DBIL (9 h): 0 mg/dL
GLC (9 h): 180.8 mg/dL
IP (9 h): 9.6 mg/dL
K (9 h): 4.5 meq/L
LDH (9 h): 128.6 IU/L
Na (9 h): 141 meq/L
PL (9 h): 115.8 mg/dL
RALB (9 h): 2.8 g/dL
TBIL (9 h): 0.02 mg/dL
TC (9 h): 60.6 mg/dL
TG (9 h): 71.2 mg/dL
TP (9 h): 5.1 g/dL
gamma-GTP (9 h): 1.4 IU/L
TERMINAL_BW (24 h): 226.1 g
APTT (24 h): 22 s
Bas (24 h): 0%
Eos (24 h): 0.8%
Fbg (24 h): 303.8 mg/dL
Hb (24 h): 13.2 g/dL
Ht (24 h): 38.9%
Lym (24 h): 81%
MCH (24 h): 20.6 pg
MCHC (24 h): 34%
MCV (24 h): 60.4 fL
Mono (24 h): 2.2%
PT (24 h): 16.7 s
Plat (24 h): 120 x10_4/uL
RBC (24 h): 645.2 x10_4/ul
Ret (24 h): 6%
WBC (24 h): 89.2 x10_2/uL
KIDNEY_L (24 h): 1 g
KIDNEY_R (24 h): 1 g
KIDNEY_TOTAL (24 h): 2 g
LIVER (24 h): 10.2 g
ALP (24 h): 1605.2 IU/L
ALT (24 h): 53 IU/L
AST (24 h): 77.6 IU/L
BUN (24 h): 17 mg/dL
CRE (24 h): 0.2 mg/dL
Ca (24 h): 10.6 mg/dL
Cl (24 h): 105.8 meq/L
DBIL (24 h): 0 mg/dL
GLC (24 h): 184.4 mg/dL
IP (24 h): 7.2 mg/dL
K (24 h): 4.3 meq/L
LDH (24 h): 171.6 IU/L
Na (24 h): 142.4 meq/L
PL (24 h): 135.6 mg/dL
RALB (24 h): 2.9 g/dL
TBIL (24 h): 0.016 mg/dL
TC (24 h): 70.6 mg/dL
TG (24 h): 90 mg/dL
TP (24 h): 5.4 g/dL
gamma-GTP (24 h): 2 IU/L
